# Experiments:
# Assay in all cases: Whole blood assay, LPS stimulation, MSD cytokine detection
# TNF-α = format: cell-based; details: fresh whole bovine blood
# Procedure: (§1) Compounds of the invention were evaluated against a positive control for their ability to inhibit LPS-induced IL-1p and TNF-α as an overall evaluation of relative potency and modulation of target pathways.
# (§2) In the bovine whole blood in vitro screening assay the inhibition of TNFα as induced by stimulation by lipopolysaccharide (LPS) and as measured by half the maximal inhibitory concentration (IC50) is recognized as the primary biomarker of immunomodulation potency upon pretreatment with the compounds of the invention. IL-1β is a mediator of the inflammation response and is involved in a number of cellular activities including proliferation, differentiation and apoptosis. IL-1β is also released upon cellular stress or cytotoxicity or upon TLR stimulation. In the bovine whole blood assay the stimulation of IL-1β release upon increasing concentration of test compound is seen as a potential cellular toxicity signal as induced by the test compound. In order to estimate a therapeutic index from the in vitro assay a differential between the TNFα IC50 (immunomodulation potency) versus the perceived cellular toxicity concentration (IL-1β release or overstimulation) was utilized. […] As the in vitro assay index approaches 1 it is proposed that the balance between immunomodulation and cytotoxicity would be too narrow in order to achieve an efficacious dose in vivo.
# IL-6 = format: cell-based; details: fresh whole bovine blood
# IL-1β = format: cell-based, bovine; details: fresh whole bovine blood, LPS stimulation; drug concentration giving overstimulation (OS) of IL-1β
# Procedure: as §1, §2
SMILES,IC50 (TNF-α),IC50 (IL-6),IL-1ß OS of LPS (IL-1β)
CC[C@H]1OC(=O)[C@H](C)[C@@H](O[C@H]2C[C@@](C)(OC)[C@](O)(CNCCOC)[C@H](C)O2)[C@H](C)[C@@H](O[C@@H]2O[C@H](C)C[C@H](N(C)C)[C@H]2Oc2ccc(F)cc2)[C@](C)(O)C[C@@H](C)CN[C@H](C)[C@@H](O)[C@]1(C)O [Example E-116],5 µM,10 µM,16 µM
CC[C@H]1OC(=O)[C@H](C)[C@@H](O[C@H]2C[C@@](C)(OC)[C@](O)(CNC(C)C)[C@H](C)O2)[C@H](C)[C@@H](O[C@@H]2O[C@H](C)C[C@H](N(C)C)[C@H]2Oc2ccc(F)cc2)[C@](C)(O)C[C@@H](C)CN[C@H](C)[C@@H](O)[C@]1(C)O [Example E-117],6 µM,11 µM,16 µM
CC[C@H]1OC(=O)[C@H](C)[C@@H](O[C@H]2C[C@@](C)(OC)[C@](O)(CNC3CCOCC3)[C@H](C)O2)[C@H](C)[C@@H](O[C@@H]2O[C@H](C)C[C@H](N(C)C)[C@H]2Oc2ccccc2)[C@](C)(O)C[C@@H](C)CN[C@H](C)[C@@H](O)[C@]1(C)O [Example E-120],8 µM,11 µM,16 µM
CC[C@H]1OC(=O)[C@H](C)[C@@H](O[C@H]2C[C@@](C)(OC)[C@](O)(CNC3CC3)[C@H](C)O2)[C@H](C)[C@@H](O[C@@H]2O[C@H](C)C[C@H](NC)[C@H]2Oc2ccccc2)[C@](C)(O)C[C@@H](C)CN[C@H](C)[C@@H](O)[C@]1(C)O [Example E-125],5 µM,8 µM,16 µM
CC[C@H]1OC(=O)[C@H](C)[C@@H](O[C@H]2C[C@@](C)(OC)[C@](O)(CNC(C)C)[C@H](C)O2)[C@H](C)[C@@H](O[C@@H]2O[C@H](C)C[C@H](NC)[C@H]2Oc2ccccc2)[C@](C)(O)C[C@@H](C)CN[C@H](C)[C@@H](O)[C@]1(C)O [Example E-127],19 µM,44 µM,40 µM
CC[C@H]1OC(=O)[C@H](C)[C@@H](O[C@H]2C[C@@](C)(OC)[C@](O)(CN(C)CCN(C)C)[C@H](C)O2)[C@H](C)[C@@H](O[C@@H]2O[C@H](C)C[C@H](NC)[C@H]2Oc2ccccc2)[C@](C)(O)C[C@@H](C)CN[C@H](C)[C@@H](O)[C@]1(C)O [Example E-128],100 µM,147 µM,100 µM
CC[C@H]1OC(=O)[C@H](C)[C@@H](O[C@H]2C[C@@](C)(OC)[C@](O)(CNCCOC)[C@H](C)O2)[C@H](C)[C@@H](O[C@@H]2O[C@H](C)C[C@H](NC)[C@H]2Oc2ccccc2)[C@](C)(O)C[C@@H](C)CN[C@H](C)[C@@H](O)[C@]1(C)O [Example E-130],32 µM,71 µM,40 µM
CC[C@H]1OC(=O)[C@H](C)[C@@H](O[C@H]2C[C@@](C)(OC)[C@](O)(CNCCCOC)[C@H](C)O2)[C@H](C)[C@@H](O[C@@H]2O[C@H](C)C[C@H](NC)[C@H]2Oc2ccccc2)[C@](C)(O)C[C@@H](C)CN[C@H](C)[C@@H](O)[C@]1(C)O [Example E-131],35 µM,52 µM,100 µM
CC[C@H]1OC(=O)[C@H](C)[C@@H](O[C@H]2C[C@@](C)(OC)[C@](O)(CNCC3CC3)[C@H](C)O2)[C@H](C)[C@@H](O[C@@H]2O[C@H](C)C[C@H](NC)[C@H]2Oc2ccccc2)[C@](C)(O)C[C@@H](C)CN[C@H](C)[C@@H](O)[C@]1(C)O [Example E-132],31 µM,60 µM,100 µM
CC[C@H]1OC(=O)[C@H](C)[C@@H](O[C@H]2C[C@@](C)(OC)[C@](O)(CNn3ccnc3)[C@H](C)O2)[C@H](C)[C@@H](O[C@@H]2O[C@H](C)C[C@H](NC)[C@H]2Oc2ccccc2)[C@](C)(O)C[C@@H](C)CN[C@H](C)[C@@H](O)[C@]1(C)O [Example E-138],48 µM,87 µM,40 µM
CC[C@H]1OC(=O)[C@H](C)[C@@H](O[C@H]2C[C@@](C)(OC)[C@](O)(CNC3CCC3)[C@H](C)O2)[C@H](C)[C@@H](O[C@@H]2O[C@H](C)C[C@H](N(C)C)[C@H]2Oc2ccccc2)[C@](C)(O)C[C@@H](C)CN[C@H](C)[C@@H](O)[C@]1(C)O [Example E-141],7 µM,19 µM,16 µM
CC[C@H]1OC(=O)[C@H](C)[C@@H](O[C@H]2C[C@@](C)(OC)[C@](O)(CNC(C)C)[C@H](C)O2)[C@H](C)[C@@H](O[C@@H]2O[C@H](C)C[C@H](N(C)C)[C@H]2Oc2ccccc2)[C@](C)(O)C[C@@H](C)CN[C@H](C)[C@@H](O)[C@]1(C)O [Example E-142],4 µM,18 µM,16 µM
CC[C@H]1OC(=O)[C@H](C)[C@@H](O[C@H]2C[C@@](C)(OC)[C@](O)(CN(C)CCN(C)C)[C@H](C)O2)[C@H](C)[C@@H](O[C@@H]2O[C@H](C)C[C@H](N(C)C)[C@H]2Oc2ccccc2)[C@](C)(O)C[C@@H](C)CN[C@H](C)[C@@H](O)[C@]1(C)O [Example E-143],34 µM,86 µM,40 µM
CC[C@H]1OC(=O)[C@H](C)[C@@H](O[C@H]2C[C@@](C)(OC)[C@](O)(CNCCN(C)C)[C@H](C)O2)[C@H](C)[C@@H](O[C@@H]2O[C@H](C)C[C@H](N(C)C)[C@H]2Oc2ccccc2)[C@](C)(O)C[C@@H](C)CN[C@H](C)[C@@H](O)[C@]1(C)O [Example E-144],8 µM,87 µM,40 µM
CC[C@H]1OC(=O)[C@H](C)[C@@H](O[C@H]2C[C@@](C)(OC)[C@](O)(CNCCOC)[C@H](C)O2)[C@H](C)[C@@H](O[C@@H]2O[C@H](C)C[C@H](N(C)C)[C@H]2Oc2ccccc2)[C@](C)(O)C[C@@H](C)CN[C@H](C)[C@@H](O)[C@]1(C)O [Example E-145],17 µM,42 µM,>250 µM
CC[C@H]1OC(=O)[C@H](C)[C@@H](O[C@H]2C[C@@](C)(OC)[C@](O)(CNCCCOC)[C@H](C)O2)[C@H](C)[C@@H](O[C@@H]2O[C@H](C)C[C@H](N(C)C)[C@H]2Oc2ccccc2)[C@](C)(O)C[C@@H](C)CN[C@H](C)[C@@H](O)[C@]1(C)O [Example E-146],12 µM,45 µM,40 µM
CCCNC[C@]1(O)[C@H](C)O[C@@H](O[C@H]2[C@H](C)[C@@H](O[C@@H]3O[C@H](C)C[C@H](N(C)Cc4ccc(OC)cc4)[C@H]3Oc3ccccc3)[C@](C)(O)C[C@@H](C)CN[C@H](C)[C@@H](O)[C@](C)(O)[C@@H](CC)OC(=O)[C@@H]2C)C[C@@]1(C)OC [Example E-147],6 µM,5 µM,4 µM
CCCNC[C@]1(O)[C@H](C)O[C@@H](O[C@H]2[C@H](C)[C@@H](O[C@@H]3O[C@H](C)C[C@H](N(C)Cc4ccccc4)[C@H]3Oc3ccccc3)[C@](C)(O)C[C@@H](C)CN[C@H](C)[C@@H](O)[C@](C)(O)[C@@H](CC)OC(=O)[C@@H]2C)C[C@@]1(C)OC [Example E-148],2 µM,1 µM,1 µM
CCCNC[C@]1(O)[C@H](C)O[C@@H](O[C@H]2[C@H](C)[C@@H](O[C@@H]3O[C@H](C)C[C@H](N(C)Cc4cccnc4)[C@H]3Oc3ccccc3)[C@](C)(O)C[C@@H](C)CN[C@H](C)[C@@H](O)[C@](C)(O)[C@@H](CC)OC(=O)[C@@H]2C)C[C@@]1(C)OC [Example E-149],10 µM,6 µM,2 µM
CCCNC[C@]1(O)[C@H](C)O[C@@H](O[C@H]2[C@H](C)[C@@H](O[C@@H]3O[C@H](C)C[C@H](N(C)Cc4nccs4)[C@H]3Oc3ccccc3)[C@](C)(O)C[C@@H](C)CN[C@H](C)[C@@H](O)[C@](C)(O)[C@@H](CC)OC(=O)[C@@H]2C)C[C@@]1(C)OC [Example E-150],6 µM,3 µM,1 µM
CCCNC[C@]1(O)[C@H](C)O[C@@H](O[C@H]2[C@H](C)[C@@H](O[C@@H]3O[C@H](C)C[C@H](NC)[C@H]3Oc3ccc(OC)cc3)[C@](C)(O)C[C@@H](C)CN(C)[C@H](C)[C@@H](O)[C@](C)(O)[C@@H](CC)OC(=O)[C@@H]2C)C[C@@]1(C)OC [Example E-151],23 µM,23 µM,16 µM
CCCNC[C@]1(O)[C@H](C)O[C@@H](O[C@H]2[C@H](C)[C@@H](O[C@@H]3O[C@H](C)C[C@H](NC)[C@H]3Oc3ccccc3)[C@](C)(O)C[C@@H](C)CN(C)[C@H](C)[C@@H](O)[C@](C)(O)[C@@H](CC)OC(=O)[C@@H]2C)C[C@@]1(C)OC [Example E-152],23 µM,21 µM,16 µM
CCCNC[C@]1(O)[C@H](C)O[C@@H](O[C@H]2[C@H](C)[C@@H](O[C@@H]3O[C@H](C)C[C@H](NC)[C@H]3Oc3ccc(F)cc3)[C@](C)(O)C[C@@H](C)CN(C)[C@H](C)[C@@H](O)[C@](C)(O)[C@@H](CC)OC(=O)[C@@H]2C)C[C@@]1(C)OC [Example E-153],21 µM,18 µM,16 µM
CCCNC[C@]1(O)[C@H](C)O[C@@H](O[C@H]2[C@H](C)[C@@H](O[C@@H]3O[C@H](C)C[C@H](NC4CCCCC4)[C@H]3Oc3ccccc3)[C@](C)(O)C[C@@H](C)CN[C@H](C)[C@@H](O)[C@](C)(O)[C@@H](CC)OC(=O)[C@@H]2C)C[C@@]1(C)OC [Example E-154],5 µM,4 µM,1 µM

# From patent publication US12390441B2, “Immunomodulating o-het/aryl azalides” (Zoetis Services LLC, priority 2020, dated 2025)
